Test results published in US7279293B2 (priority 2002, dated 2007).
Entries after “also recorded” stand apart in the source; their conditions may differ.

Key:
Type in all cases: cell-based
[1] = test system: wild type mouse H3 receptor and mouse H3 receptor mutants MT1, MT2, MT3, MT5, MT6; conditions: 10 μM forskolin
Protocol: (§1) Wild type mouse H3 receptor cDNA and the five mouse H3 receptor mutant cDNAs were each transfected into cell line HEK293, and screened with G418 to obtain their respective stable clones. Northern analysis was used to check expression levels, and stable clones with roughly equal expression levels were used in the experiment.
(§2) Since H3 receptors are Gi-binding-type G protein-coupled receptors, cAMP levels were measured using ELISA. More specifically, 10^5 cells per well were cultured in a 24-well plate the day before testing. On the day of the test, cells were cultured for 15 minutes in the absence of serum, and then treated for 15 minutes with 0.5 mM IBMX. Forskolin (10 μM), histamine (10^−11 M to 10^−6 M) and thioperamide (10^−10 M to 10^−5 M) were respectively added, and the cells were treated for 15 minutes. The cAMP Enzyme Immunoassay (EIA) System (Amersham) was used to measure cAMP. The cells were lysed with 150 μl of lysing reagent 1B, provided with the kit. 5 μl of the cell lysate and rabbit anti-cAMP antibody were reacted by being allowed to stand undisturbed at 4° C. for two hours on an antibody-immobilized plate. Moreover, enzyme-labeled antibody was added and reacted by being allowed to stand undisturbed at 4° C. for one hour. The plate was washed with buffer, and enzyme substrate solution was then added and reacted by being allowed to stand undisturbed at room temperature for about 30 minutes. The reaction was stopped with 1 N sulfuric acid, and optical absorbance was then measured. A standard curve was produced from the optical absorbances of standard cAMP solutions, and cAMP levels were determined.

[2] = target: T1, MT6 clone (constitutively active mouse H3 receptor mutant) (Mus musculus, UniProt P58406, A357K); assay: cAMP levels by ELISA (cAMP EIA) in the HEK293 MT6 clone, with 10 μM forskolin; conditions: thioperamide with 10 μM forskolin; MT6 clone versus wild type H3
T1 construct: expressed in transfected cells
Protocol: as §1
as §2, with “Moreover, enzyme-labeled antibody was added and reacted by being allowed to stand undisturbed at 4° C. for one hour. The plate was washed with buffer, and enzyme substrate solution was then added and reacted by being allowed to stand undisturbed at room temperature for about 30 minutes.” left out

[3] = target: T2, wild type mouse H3 receptor and mouse H3 receptor mutants MT1, MT2, MT3, MT5, MT6 (Mus musculus, UniProt P58406, A357K)
T2 construct: expressed in transfected cells
Protocol: as §1, §2

T2 sequence (P58406 whole entry A357K): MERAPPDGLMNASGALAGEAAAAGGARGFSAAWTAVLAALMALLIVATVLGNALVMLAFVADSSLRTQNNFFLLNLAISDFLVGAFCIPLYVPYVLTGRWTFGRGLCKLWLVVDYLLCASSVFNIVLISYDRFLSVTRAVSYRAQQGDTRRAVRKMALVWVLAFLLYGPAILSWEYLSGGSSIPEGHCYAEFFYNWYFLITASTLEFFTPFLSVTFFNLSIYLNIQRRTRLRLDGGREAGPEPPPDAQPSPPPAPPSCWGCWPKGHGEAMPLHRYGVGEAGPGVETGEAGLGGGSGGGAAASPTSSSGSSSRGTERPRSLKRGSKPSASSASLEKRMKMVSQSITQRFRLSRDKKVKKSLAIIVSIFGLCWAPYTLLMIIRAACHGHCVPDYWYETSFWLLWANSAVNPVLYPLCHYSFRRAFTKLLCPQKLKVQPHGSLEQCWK
T1 sequence (P58406 whole entry A357K): as above

## NCCc1c[nH]cn1 [histamine]
[1]; all clones, histamine 10^-11 M to 10^-6 M, 15 minutes, FIG. 4
  change in cAMP levels caused by histamine: decrease in a histamine dose-dependent manner; also recorded: decreased histamine dose-dependently

## S=C(NC1CCCCC1)N1CCC(c2cnc[nH]2)CC1 [thioperamide]
[2]
  cAMP increase in MT6 clone compared to the wild type: about five-fold
[3]
  change in cAMP levels caused by thioperamide: increase with increased doses of thioperamide; also recorded: increase cAMP levels dose-dependently

## pertussis toxin [PTX]
[1]; wild type H3 and MT6 clones, PTX 100 ng/ml for 18 hours
  effect of PTX on the cAMP increases caused by thioperamide: inhibited the increases in cAMP caused by thioperamide
